Measured values taken from US20250197372A1 (priority 2020, published 2025).
Read-outs that look alike come from different tables or passages of the source.

Legend:
Assay type in all cases: biochemical
[1] = target: T1, recombinant alpha-glucosidase I (human full-length glucosidase I, Glu 1) (Homo sapiens, UniProt Q13724); assay: Alpha-glucosidase I assay (Amplex Red glucose detection, synthetic trisaccharide substrate)
T1 construct: 6-His (C); made in house; host or cells: HEK-293T cells transduced with BacMam virus (virus raised in Sf9)
T1 sequence (Q13724 1-837): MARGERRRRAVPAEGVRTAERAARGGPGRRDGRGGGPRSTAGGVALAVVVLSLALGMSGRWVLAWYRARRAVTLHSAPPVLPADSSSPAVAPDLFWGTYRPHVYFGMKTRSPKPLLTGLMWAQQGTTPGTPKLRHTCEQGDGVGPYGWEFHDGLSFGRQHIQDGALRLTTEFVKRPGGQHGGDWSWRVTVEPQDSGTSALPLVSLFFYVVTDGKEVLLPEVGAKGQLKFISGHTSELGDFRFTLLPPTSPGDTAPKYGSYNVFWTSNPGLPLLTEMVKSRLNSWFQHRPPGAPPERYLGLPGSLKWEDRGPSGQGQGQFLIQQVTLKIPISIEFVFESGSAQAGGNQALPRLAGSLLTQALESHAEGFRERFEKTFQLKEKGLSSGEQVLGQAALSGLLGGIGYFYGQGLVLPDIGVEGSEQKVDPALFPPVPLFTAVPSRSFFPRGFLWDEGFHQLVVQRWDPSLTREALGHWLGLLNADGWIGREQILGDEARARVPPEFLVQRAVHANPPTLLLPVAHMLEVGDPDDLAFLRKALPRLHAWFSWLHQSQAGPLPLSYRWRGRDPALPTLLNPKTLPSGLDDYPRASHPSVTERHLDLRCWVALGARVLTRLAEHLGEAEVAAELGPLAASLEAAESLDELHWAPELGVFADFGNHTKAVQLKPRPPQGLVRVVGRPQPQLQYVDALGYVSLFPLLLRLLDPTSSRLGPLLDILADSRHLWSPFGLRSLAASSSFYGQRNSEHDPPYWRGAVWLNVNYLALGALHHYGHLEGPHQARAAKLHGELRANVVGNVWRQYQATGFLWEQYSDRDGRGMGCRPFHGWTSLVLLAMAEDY
Method in brief: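 Compound dilution series incubated 60 min at 37° C with recombinant His-tagged human glucosidase I ([…]), after which trisaccharide substrate analog was added for 90 min at 37° C. Reaction quenched with 1.5M Tris pH 8; D-glucose detected by Amplex Red fluorescence, 560/590 nm. 4-PL curve fit of percent inhibition gave IC50.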

[2] = target: recombinant human GAA (acid alpha-glucosidase) (Homo sapiens, UniProt P10253); assay: Acid alpha-glucosidase (GAA) assay (4-methylumbelliferyl-alpha-D-pyranoside substrate, fluorescence)
Method in brief: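 IC50 from 4-PL curve fit of percent inhibition, based on fluorescence (365/440 nm) of released methylumbelliferone relative to uninhibited enzyme. Compound dilutions and human GAA incubated 60 min, 37 °C, before 20 min substrate reaction at 37 °C, quenched at pH 10.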

[3] = target: rat maltase (partially purified alpha-glucosidase from intestinal rat powder); assay: Intestinal alpha-glucosidase assay, maltose substrate (Glucose GO Kit)
Method in brief: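 Enzyme from intestinal rat powder, partially purified, is exposed to compound for 60 min at 37 °C. Disaccharide substrate (maltose or sucrose respectively) then reacts 30 min at 37 °C. Heat-stopped samples are assayed for glucose, and percent inhibition versus concentration gives IC50 via 4-PL.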

[4] = target: rat sucrase (partially purified alpha-glucosidase from intestinal rat powder) (Rattus norvegicus, UniProt P23739); assay: Intestinal alpha-glucosidase assay, sucrose substrate (Glucose GO Kit)
Sequence of rat sucrase (partially purified alpha-glucosidase from intestinal rat powder) (P23739 whole entry): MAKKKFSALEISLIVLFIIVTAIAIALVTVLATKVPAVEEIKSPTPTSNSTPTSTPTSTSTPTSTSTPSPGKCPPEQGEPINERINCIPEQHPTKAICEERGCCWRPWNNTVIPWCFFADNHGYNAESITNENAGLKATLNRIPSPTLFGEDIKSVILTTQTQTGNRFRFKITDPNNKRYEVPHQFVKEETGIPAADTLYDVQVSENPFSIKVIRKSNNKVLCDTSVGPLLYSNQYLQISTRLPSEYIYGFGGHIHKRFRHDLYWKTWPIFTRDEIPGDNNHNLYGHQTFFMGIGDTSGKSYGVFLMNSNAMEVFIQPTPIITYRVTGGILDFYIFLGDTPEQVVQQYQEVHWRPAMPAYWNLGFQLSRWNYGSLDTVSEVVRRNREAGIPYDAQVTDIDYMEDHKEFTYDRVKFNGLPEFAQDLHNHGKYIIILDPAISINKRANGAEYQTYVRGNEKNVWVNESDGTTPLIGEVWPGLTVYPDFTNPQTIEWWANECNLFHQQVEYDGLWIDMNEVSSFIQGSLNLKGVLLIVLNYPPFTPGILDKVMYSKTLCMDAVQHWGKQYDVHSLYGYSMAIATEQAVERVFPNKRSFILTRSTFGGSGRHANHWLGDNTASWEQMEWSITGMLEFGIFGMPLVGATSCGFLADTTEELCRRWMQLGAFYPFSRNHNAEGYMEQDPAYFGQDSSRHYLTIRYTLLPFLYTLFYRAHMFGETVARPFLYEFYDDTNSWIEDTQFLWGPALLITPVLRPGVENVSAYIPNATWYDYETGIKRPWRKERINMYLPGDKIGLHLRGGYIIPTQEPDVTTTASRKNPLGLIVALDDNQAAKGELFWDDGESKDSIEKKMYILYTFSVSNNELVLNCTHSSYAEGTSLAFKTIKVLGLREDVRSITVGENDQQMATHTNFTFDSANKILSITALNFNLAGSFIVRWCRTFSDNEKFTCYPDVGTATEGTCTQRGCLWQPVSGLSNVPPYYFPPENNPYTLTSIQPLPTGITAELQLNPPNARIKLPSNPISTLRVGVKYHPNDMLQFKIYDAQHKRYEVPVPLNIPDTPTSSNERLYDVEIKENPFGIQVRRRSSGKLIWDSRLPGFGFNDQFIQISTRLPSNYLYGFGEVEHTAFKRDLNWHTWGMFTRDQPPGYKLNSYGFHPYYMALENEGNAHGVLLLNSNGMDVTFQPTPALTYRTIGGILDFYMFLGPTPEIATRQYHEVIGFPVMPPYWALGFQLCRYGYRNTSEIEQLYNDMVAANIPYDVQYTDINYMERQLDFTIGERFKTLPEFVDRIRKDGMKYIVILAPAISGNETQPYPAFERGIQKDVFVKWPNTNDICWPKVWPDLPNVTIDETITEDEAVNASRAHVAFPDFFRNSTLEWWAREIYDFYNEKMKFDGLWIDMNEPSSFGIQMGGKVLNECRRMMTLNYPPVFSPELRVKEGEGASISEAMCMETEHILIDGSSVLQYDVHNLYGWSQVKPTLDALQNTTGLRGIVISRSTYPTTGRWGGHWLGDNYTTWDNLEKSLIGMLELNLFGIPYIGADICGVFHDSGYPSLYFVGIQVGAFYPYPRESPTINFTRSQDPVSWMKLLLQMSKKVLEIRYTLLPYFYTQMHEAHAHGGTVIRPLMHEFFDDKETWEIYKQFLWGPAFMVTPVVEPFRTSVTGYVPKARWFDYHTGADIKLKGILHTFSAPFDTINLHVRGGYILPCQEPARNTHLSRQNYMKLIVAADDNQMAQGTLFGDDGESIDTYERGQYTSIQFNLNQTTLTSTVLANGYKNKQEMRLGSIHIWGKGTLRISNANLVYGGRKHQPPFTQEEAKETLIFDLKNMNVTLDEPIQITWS
Method in brief: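 Glucose release is the read-out: compounds at multiple dilutions are first held with partially purified rat intestinal alpha-glucosidase for 60 min at 37 °C, after which maltose or sucrose substrate reacts for 30 min at 37 °C before a 5 min 90 °C stop. IC50 comes from a four-parameter logistic fit.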

[5] = Glucosidase 1, read-out: Glu 1 IC50

[N-]=[N+]=Nc1ccc(NCc2ccc(CN3C[C@H](O)[C@@H](O)[C@H](O)[C@H]3CO)cc2)c([N+](=O)[O-])c1 [Compound 1170, (2R,3R,4R,5S)-1-[(4-{[(4-azido-2-nitrophenyl)amino]methyl}phenyl)methyl]-2-(hydroxymethyl)piperidine-3,4,5-triol] was tested, and the IC50 [1, 5] was 4 nM, the IC50 [2] was 81 nM and the IC50 [3] was < 1 nM. For the same molecule, the IC50 [4] was 2 nM.

Work on Cc1cc(NCc2ccc(CN3C[C@H](O)[C@@H](O)[C@H](O)[C@H]3CO)cc2)cc(-c2cccnn2)c1 [Compound 1052, (2R,3R,4R,5S)-2-(hydroxymethyl)-1-{[4-({[3-methyl-5-(pyridazin-3-yl)phenyl]amino}methyl)phenyl]methyl}piperidine-3,4,5-trio] yielded an IC50 [1] of 73 nM, an IC50 [2] of 150 nM and an IC50 [3] of 14 nM. It also gave an IC50 [4] of 60 nM.

With O=[N+]([O-])c1cc(N2C3CCC2COC3)ccc1NCc1ccc(CN2CC(O)C(O)C(O)C2CO)cc1 (stereo in doubt) [Compound 1018, (2S,3S,4S,5R)-2-(hydroxymethyl)-1-({4-[({2-nitro-4-[(1R,5S)-3-oxa-8-azabicyclo[3.2.1]octan-8-yl]phenyl}amino)methyl]phenyl}methyl) piperidine-3,4,5-triol] the IC50 [1] was < 1 nM, the IC50 [2] was 44 nM and the IC50 [3] was < 1 nM. For the same molecule, the IC50 [4] was < 1 nM.

OC[C@@H]1[C@@H](O)[C@H](O)[C@@H](O)CN1CCCCCCNc1ccc(-c2cnccn2)cc1Cl [Compound 1198, (2R,3R,4R,5S)-1-(6-{[2-chloro-4-(pyrazin-2-yl)phenyl]amino}hexyl)-2-(hydroxymethyl)piperidine-3,4,5-triol] was tested, and the IC50 [1, 5] was 12 nM, the IC50 [2] was 47 nM and the IC50 [3] was < 1 nM. It also gave an IC50 [4] of 1 nM.

For OC[C@@H]1[C@@H](O)[C@H](O)[C@@H](O)CN1CCc1ccc(CCNc2cc(Cl)cc(-c3ccco3)c2)cc1 [Compound 1159, (2R,3R,4R,5S)-1-{2-[4-(2-{[3-chloro-5-(furan-2-yl)phenyl]amino}ethyl)phenyl]ethyl}-2-(hydroxymethyl)piperidine-3,4,5-triol], the IC50 [1, 5] was 183 nM, the IC50 [2] was < 1 nM and the IC50 [3] was 25 nM. For the same molecule, the IC50 [4] was 847 nM.

For OC[C@@H]1[C@@H](O)[C@H](O)[C@@H](O)CN1CCCCCCNc1cc(-c2cccnn2)cc(C2CC2)c1 [Compound 1008, (2R,3R,4R,5S)-1-(6-{[3-cyclopropyl-5-(pyridazin-3-yl)phenyl]amino}hexyl)-2-(hydroxymethyl)piperidine-3,4,5-triol], the IC50 [1] was 103 nM, the IC50 [2] was 64 nM and the IC50 [3] was 6 nM. It also gave an IC50 [4] of 78 nM.

COc1cc(NCCc2ccc(CCN3C[C@H](O)[C@@H](O)[C@H](O)[C@H]3CO)cc2)cc(C2=COCCO2)c1 [Compound 1155, (2R,3R,4R,5S)-1-{2-[4-(2-{[3-(5,6-dihydro-1,4-dioxin-2-yl)-5-methoxyphenyl]amino}ethyl)phenyl]ethyl}-2-(hydroxymethyl)piperidine-3,4,5-triol] showed an IC50 [1, 5] of 1250 nM, an IC50 [2] of 455 nM and an IC50 [3] of 418 nM. For the same molecule, the IC50 [4] was 726 nM.

For COc1cc(CN2CCCO2)cc(NCCCCCCN2C[C@H](O)[C@@H](O)[C@H](O)[C@H]2CO)c1 [Compound 1182, (2R,3R,4R,5S)-2-(hydroxymethyl)-1-[6-({3-methoxy-5-[(1,2-oxazolidin-2-yl)methyl]phenyl}amino)hexyl]piperidine-3,4,5-triol], the IC50 [1, 5] was 47 nM, the IC50 [2] was 33 nM and the IC50 [3] was 26 nM. The IC50 [4] was 179 nM.

Work on CN(C)C(=O)c1cc(NCCCCCCN2C[C@H](O)[C@@H](O)[C@H](O)[C@H]2CO)cc(-c2ncccn2)c1 [Compound 1126, N,N-dimethyl-3-(pyrimidin-2-yl)-5-({6-[(2R,3R,4R,5S)-3,4,5-trihydroxy-2-(hydroxymethyl)piperidin-1-yl]hexyl}amino)benzamide] yielded an IC50 [1, 5] of 550 nM, an IC50 [2] of 86 nM and an IC50 [3] of 23 nM. It also gave an IC50 [4] of 13500 nM.

COc1cc(NCCCCCCN2C[C@H](O)[C@@H](O)[C@H](O)[C@H]2CO)cc(C2CCCCC2)c1 [Compound 1148, (2R,3R,4R,5S)-1-{6-[(3-cyclohexyl-5-methoxyphenyl)amino]hexyl}-2-(hydroxymethyl)piperidine-3,4,5-triol] was tested, and the IC50 [1, 5] was 372 nM, the IC50 [2] was 88 nM and the IC50 [3] was < 1 nM. For the same molecule, the IC50 [4] was 1 nM.

Work on OC[C@@H]1[C@@H](O)[C@H](O)[C@@H](O)CN1CCc1ccc(CCNc2cc(Cl)cc(C3=COCCO3)c2)cc1 [Compound 1161, (2R,3R,4R,5S)-1-{2-[4-(2-{[3-chloro-5-(5,6-dihydro-1,4-dioxin-2-yl)phenyl]amino}ethyl)phenyl]ethyl}-2-(hydroxymethyl)piperidine-3,4,5-triol] yielded an IC50 [1, 5] of 729 nM, an IC50 [2] of 84 nM and an IC50 [3] of 273 nM. It also gave an IC50 [4] of 740 nM.

For CS(=O)(=O)c1cc(NCc2cccc(CN3C[C@H](O)[C@@H](O)[C@H](O)[C@H]3CO)c2)cc(-c2ncccn2)c1 [Compound 1041, (2R,3R,4R,5S)-2-(hydroxymethyl)-1-{[3-({[3-methanesulfonyl-5-(pyrimidin-2-yl)phenyl]amino}methyl)phenyl]methyl}piperidine-3,4,5-triol], the IC50 [1] was 17 nM, the IC50 [2] was 1880 nM and the IC50 [3] was 79 nM. For the same molecule, the IC50 [4] was 187 nM.

With OC[C@@H]1[C@@H](O)[C@H](O)[C@@H](O)CN1CCCCCCNc1cc(Cl)cc(CN2CCCO2)c1 [Compound 1183, (2R,3R,4R,5S)-1-[6-({3-chloro-5-[(1,2-oxazolidin-2-yl)methyl]phenyl}amino)hexyl]-2-(hydroxymethyl)piperidine-3,4,5-triol] the IC50 [1, 5] was 154 nM, the IC50 [2] was 90 nM and the IC50 [3] was 15 nM. For the same molecule, the IC50 [4] was 94 nM.

Molecule OC[C@@H]1[C@@H](O)[C@H](O)[C@@H](O)CN1CCc1ccc(CCNc2cc(Cl)cc(-c3cccnn3)c2)cc1 [Compound 1163, (2R,3R,4R,5S)-1-{2-[4-(2-{[3-chloro-5-(pyridazin-3-yl)phenyl]amino}ethyl)phenyl]ethyl}-2-(hydroxymethyl)piperidine-3,4,5-triol] has an IC50 [1] of 211 nM, an IC50 [2] of 93 nM and an IC50 [3] of 309 nM. It also gave an IC50 [4] of 584 nM.

Work on CC(=O)Nc1cc(NCCCCCCN2C[C@H](O)[C@@H](O)[C@H](O)[C@H]2CO)cc(-c2ncccn2)c1 [Compound 1125, N-[3-(pyrimidin-2-yl)-5-({6-[(2R,3R,4R,5S)-3,4,5-trihydroxy-2-(hydroxymethyl)piperidin-1-yl]hexyl}amino)phenyl]acetamide] yielded an IC50 [1, 5] of 337 nM, an IC50 [2] of 80 nM and an IC50 [3] of 15 nM. The IC50 [4] was 92 nM.

CS(=O)(=O)c1cc(NCCCCCCN2C[C@H](O)[C@@H](O)[C@H](O)[C@H]2CO)cc(-c2ncccn2)c1 [Compound 1128, (2R,3R,4R,5S)-2-(hydroxymethyl)-1-(6-{[3-methanesulfonyl-5-(pyrimidin-2-yl)phenyl]amino}hexyl)piperidine-3,4,5-triol] was tested, and the IC50 [1, 5] was 116 nM, the IC50 [2] was 5 nM and the IC50 [3] was < 1 nM. For the same molecule, the IC50 [4] was 39 nM.

In the case of COc1cc(NCCc2ccc(CCN3C[C@H](O)[C@@H](O)[C@H](O)[C@H]3CO)cc2)cc(-c2ncccn2)c1 [Compound 1156, (2R,3R,4R,5S)-2-(hydroxymethyl)-1-{2-[4-(2-{[3-methoxy-5-(pyrimidin-2-yl)phenyl]amino}ethyl)phenyl]ethyl}piperidine-3,4,5-triol], the IC50 [1, 5] is reported as 1270 nM, the IC50 [2] is reported as 814 nM and the IC50 [3] is reported as 287 nM. It also gave an IC50 [4] of 610 nM.

[N-]=[N+]=Nc1ccc(NCc2cccc(CN3C[C@H](O)[C@@H](O)[C@H](O)[C@H]3CO)c2)c([N+](=O)[O-])c1 [Compound 1169, (2R,3R,4R,5S)-1-[(3-{[(4-azido-2-nitrophenyl)amino]methyl}phenyl)methyl]-2-(hydroxymethyl)piperidine-3,4,5-triol] was tested, and the IC50 [1, 5] was 68 nM, the IC50 [2] was 420 nM and the IC50 [3] was < 1 nM. The IC50 [4] was < 1 nM.
